Assay results: ChEMBL document CHEMBL1201861, “Genomics of Drug Sensitity in Cancer screening data, Wellcome Trust Sanger Institute”

What was measured:
Assay in all cases: cells
U-87 MG = type: functional, cell-based, U-87MG ATCC; settings: Homo sapiens;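 also: growth inhibition of the cells measured with a viability assay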
Description: SANGER: Inhibition of human U-87-MG cell growth in a cell viability assay.

SNB-75 = type: functional, cell-based; settings: Homo sapiens;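 also: cell viability assay measuring growth inhibition of human SNB-75 cells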
Description: SANGER: Inhibition of human SNB75 cell growth in a cell viability assay.

Ramos-2G6-4C10 = type: functional, cell-based; settings: Homo sapiens;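 also: growth inhibition of the cell line, measured by a cell viability read-out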
Description: SANGER: Inhibition of human Ramos-2G6-4C10 cell growth in a cell viability assay.

NOMO-1 = type: functional, cell-based; settings: Homo sapiens;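 also: growth inhibition of human NOMO-1 cells measured by a cell viability assay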
Description: SANGER: Inhibition of human NOMO-1 cell growth in a cell viability assay.

SK-LMS-1 = type: functional, cell-based; settings: Homo sapiens;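 also: growth inhibition of human SK-LMS-1 cells, read out with a cell viability assay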
Description: SANGER: Inhibition of human SK-LMS-1 cell growth in a cell viability assay.

SK-N-FI = type: functional, cell-based; settings: Homo sapiens;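 also: cell viability assay measuring growth inhibition of human SK-N-FI cells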
Description: SANGER: Inhibition of human SK-N-FI cell growth in a cell viability assay.

ES5 = type: functional, cell-based; settings: Homo sapiens;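 also: growth inhibition of human ES5 cells, read out by a cell viability assay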
Description: SANGER: Inhibition of human ES5 cell growth in a cell viability assay.

EOL1 = type: functional, cell-based; settings: Homo sapiens;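 also: growth inhibition of EoL-1 cells, read out by a cell viability assay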
Description: SANGER: Inhibition of human EoL-1-cell cell growth in a cell viability assay.

HD-MY-Z = type: functional, cell-based; settings: Homo sapiens;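 also: growth inhibition of HD-MY-Z cells, read out with a cell viability assay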
Description: SANGER: Inhibition of human HD-MY-Z cell growth in a cell viability assay.

ETK-1 = type: functional, cell-based; settings: Homo sapiens;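 also: growth inhibition of human ETK-1 cells, read out with a cell viability assay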
Description: SANGER: Inhibition of human ETK-1 cell growth in a cell viability assay.

NCI-H1304 = type: functional, cell-based; settings: Homo sapiens;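 also: growth inhibition of the cancer cell line, measured in a cell viability assay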
Description: SANGER: Inhibition of human NCI-H1304 cell growth in a cell viability assay.

NCI-H1155 = type: functional, cell-based; settings: Homo sapiens;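 also: cell growth inhibition measured by a viability assay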
Description: SANGER: Inhibition of human NCI-H1155 cell growth in a cell viability assay.

LOUCY = type: functional, cell-based; settings: Homo sapiens;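 also: growth inhibition of human LOUCY cells, read out with a cell viability assay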
Description: SANGER: Inhibition of human LOUCY cell growth in a cell viability assay.

CAL-12T = type: functional, cell-based, Homo sapiens; settings: Homo sapiens, CAL-12T;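 also: growth inhibition of human CAL-12T cells, read out with a cell viability assay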
Description: SANGER: Inhibition of human CAL-12T cell growth in a cell viability assay.

769-P = type: functional, cell-based; settings: Homo sapiens
Description: SANGER: Inhibition of human 769-P cell growth in a cell viability assay.

OE19 = type: functional, cell-based; settings: Homo sapiens;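 also: growth inhibition of OE19 cells, measured through a cell viability read-out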
Description: SANGER: Inhibition of human OE19 cell growth in a cell viability assay.

RKO = type: functional, cell-based; settings: Homo sapiens;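 also: growth inhibition of human RKO cells, read out with a cell viability assay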
Description: SANGER: Inhibition of human RKO cell growth in a cell viability assay.

KG-1 = type: functional, cell-based; settings: Homo sapiens;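 also: growth inhibition of KG-1 cells, read out by a cell viability assay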
Description: SANGER: Inhibition of human KG-1 cell growth in a cell viability assay.

LB2241-RCC = type: functional, cell-based; settings: Homo sapiens;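 also: cell viability assay measuring how strongly the cultured human renal carcinoma line is prevented from growing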
Description: SANGER: Inhibition of human LB2241-RCC cell growth in a cell viability assay.

GB-1 = type: functional, cell-based; settings: Homo sapiens;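 also: growth of GB-1 cells judged by a viability assay, IC50 marks the concentration inhibiting growth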
Description: SANGER: Inhibition of human GB-1 cell growth in a cell viability assay.

KARPAS-45 = type: functional, cell-based; settings: Homo sapiens;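 also: inhibition of cell line growth, read out through a viability assay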
Description: SANGER: Inhibition of human KARPAS-45 cell growth in a cell viability assay.

HH = type: functional, cell-based; settings: Homo sapiens
Description: SANGER: Inhibition of human HH cell growth in a cell viability assay.

QIMR-WIL = type: functional, cell-based; settings: Homo sapiens;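 also: growth inhibition of QIMR-WIL cells, read out with a cell viability assay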
Description: SANGER: Inhibition of human QIMR-WIL cell growth in a cell viability assay.

UACC-257 = type: functional, cell-based; settings: Homo sapiens
Description: SANGER: Inhibition of human UACC-257 cell growth in a cell viability assay.

LB2518-MEL = type: functional, cell-based; settings: Homo sapiens;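 also: growth inhibition of human LB2518-MEL cells, measured with a cell viability assay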
Description: SANGER: Inhibition of human LB2518-MEL cell growth in a cell viability assay.

RS4-11 = type: functional, cell-based; settings: Homo sapiens;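 also: growth inhibition of RS4-11 cells, read out by a cell viability assay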
Description: SANGER: Inhibition of human RS4-11 cell growth in a cell viability assay.

DOHH-2 = type: functional, cell-based; settings: Homo sapiens;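 also: growth inhibition of human DOHH-2 cells, read out with a cell viability assay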
Description: SANGER: Inhibition of human DOHH-2 cell growth in a cell viability assay.

TE-6 = type: functional, cell-based; settings: Homo sapiens;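 also: growth inhibition of TE-6 cells, read out with a cell viability assay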
Description: SANGER: Inhibition of human TE-6 cell growth in a cell viability assay.

NCI-H2228 = type: functional, cell-based; settings: Homo sapiens;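 also: growth inhibition of human NCI-H2228 cells, read out by a cell viability assay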
Description: SANGER: Inhibition of human NCI-H2228 cell growth in a cell viability assay.

REH = type: functional, cell-based; settings: Homo sapiens;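 also: growth inhibition of REH cells determined with a cell viability read-out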
Description: SANGER: Inhibition of human REH cell growth in a cell viability assay.

HCE-4 = type: functional, cell-based; settings: Homo sapiens;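 also: cell viability assay measuring inhibition of growth in the human HCE-4 cell line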
Description: SANGER: Inhibition of human HCE-4 cell growth in a cell viability assay.

NCI-H1395 = type: functional, cell-based; settings: Homo sapiens;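 also: cell viability assay read-out quantifying reduced proliferation of human NCI-H1395 cells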
Description: SANGER: Inhibition of human NCI-H1395 cell growth in a cell viability assay.

SH-4 = type: functional, cell-based; settings: Homo sapiens;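 also: growth inhibition of SH-4 cells, read out with a cell viability assay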
Description: SANGER: Inhibition of human SH-4 cell growth in a cell viability assay.

TE-9 = type: functional, cell-based; settings: Homo sapiens;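 also: cell growth inhibition, measured with a cell viability readout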
Description: SANGER: Inhibition of human TE-9 cell growth in a cell viability assay.

SNU-5 = type: functional, cell-based; settings: Homo sapiens;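 also: cell viability readout used to measure growth inhibition in human NCI-SNU-5 cells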
Description: SANGER: Inhibition of human NCI-SNU-5 cell growth in a cell viability assay.

P30-OHK = type: functional, cell-based; settings: Homo sapiens;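 also: growth inhibition of the P30-OHK cell line, read out with a cell viability assay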
Description: SANGER: Inhibition of human P30-OHK cell growth in a cell viability assay.

GAK = type: functional, cell-based; settings: Homo sapiens;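 also: cell growth inhibition read out by a cell viability assay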
Description: SANGER: Inhibition of human GAK cell growth in a cell viability assay.

KMOE-2 = type: functional, cell-based; settings: Homo sapiens;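 also: growth inhibition of human KMOE-2 cells, read out with a cell viability assay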
Description: SANGER: Inhibition of human KMOE-2 cell growth in a cell viability assay.

SW 954 = type: functional, cell-based; settings: Homo sapiens;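 also: growth inhibition of SW954 human cancer cells, read out as cell viability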
Description: SANGER: Inhibition of human SW954 cell growth in a cell viability assay.

SCC-15 = type: functional, cell-based; settings: Homo sapiens;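 also: growth inhibition of SCC-15 cells, read out with a cell viability assay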
Description: SANGER: Inhibition of human SCC-15 cell growth in a cell viability assay.

KNS-81-FD = type: functional, cell-based; settings: Homo sapiens;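 also: growth inhibition of KNS-81-FD cells, read out with a cell viability assay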
Description: SANGER: Inhibition of human KNS-81-FD cell growth in a cell viability assay.

EW-13 = type: functional, cell-based; settings: Homo sapiens;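 also: growth inhibition of EW-13 cells, read out with a cell viability assay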
Description: SANGER: Inhibition of human EW-13 cell growth in a cell viability assay.

LS-123 = type: functional, cell-based; settings: Homo sapiens
Description: SANGER: Inhibition of human LS-123 cell growth in a cell viability assay.

OS-RC-2 = type: functional, cell-based; settings: Homo sapiens;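 also: growth inhibition of human OS-RC-2 cells, measured by a cell viability assay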
Description: SANGER: Inhibition of human OS-RC-2 cell growth in a cell viability assay.

DB = type: functional, cell-based; settings: Homo sapiens
Description: SANGER: Inhibition of human DB cell growth in a cell viability assay.

NY = type: functional, cell-based; settings: Homo sapiens
Description: SANGER: Inhibition of human NY cell growth in a cell viability assay.

GR-ST = type: functional, cell-based; settings: Homo sapiens
Description: SANGER: Inhibition of human GR-ST cell growth in a cell viability assay.

MOLT-4 = type: functional, cell-based; settings: Homo sapiens;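 also: growth inhibition of MOLT-4 cells, determined with a cell viability readout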
Description: SANGER: Inhibition of human MOLT-4 cell growth in a cell viability assay.

SF-539 = type: functional, cell-based; settings: Homo sapiens;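 also: Read-out is a cell viability assay, with IC50 reflecting inhibition of cell growth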
Description: SANGER: Inhibition of human SF539 cell growth in a cell viability assay.

CAS-1 = type: functional, cell-based; settings: Homo sapiens;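 also: growth inhibition of CAS-1 cells, measured with a cell viability assay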
Description: SANGER: Inhibition of human CAS-1 cell growth in a cell viability assay.

KM12 = type: functional, cell-based; settings: Homo sapiens;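 also: KM12 cell growth inhibition, read out with a cell viability assay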
Description: SANGER: Inhibition of human KM12 cell growth in a cell viability assay.

KU812 cell line = type: functional, cell-based; settings: Homo sapiens;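 also: growth inhibition of KU812 cells, read out with a cell viability assay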
Description: SANGER: Inhibition of human KU812 cell growth in a cell viability assay.

C-33-A = type: functional, cell-based; settings: Homo sapiens;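 also: cell viability assay measuring growth inhibition of C-33-A cells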
Description: SANGER: Inhibition of human C-33-A cell growth in a cell viability assay.

HT-144 = type: functional, cell-based; settings: Homo sapiens
Description: SANGER: Inhibition of human HT-144 cell growth in a cell viability assay.

IST-SL1 = type: functional, cell-based; settings: Homo sapiens;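 also: growth inhibition of human IST-SL1 cells, read out with a cell viability assay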
Description: SANGER: Inhibition of human IST-SL1 cell growth in a cell viability assay.

OCI-AML2 = type: functional, cell-based; settings: Homo sapiens;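 also: growth inhibition of OCI-AML2 cells, read out with a cell viability assay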
Description: SANGER: Inhibition of human OCI-AML2 cell growth in a cell viability assay.

ML-2 = type: functional, cell-based; settings: Homo sapiens;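 also: growth inhibition of ML-2 cells, measured with a cell viability readout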
Description: SANGER: Inhibition of human ML-2 cell growth in a cell viability assay.

DMS-79 = type: functional, cell-based; settings: Homo sapiens
Description: SANGER: Inhibition of human DMS-79 cell growth in a cell viability assay.

MZ2-MEL = type: functional, cell-based; settings: Homo sapiens
Description: SANGER: Inhibition of human MZ2-MEL cell growth in a cell viability assay.

CA46 = type: functional, cell-based; settings: Homo sapiens
Description: SANGER: Inhibition of human CA46 cell growth in a cell viability assay.

NEC8 = type: functional, cell-based; settings: Homo sapiens
Description: SANGER: Inhibition of human NEC8 cell growth in a cell viability assay.

CTV-1 = type: functional, cell-based; settings: Homo sapiens
Description: SANGER: Inhibition of human CTV-1 cell growth in a cell viability assay.

HCE-T = type: functional, cell-based; settings: Homo sapiens
Description: SANGER: Inhibition of human HCE-T cell growth in a cell viability assay.

Detroit 562 = type: functional, cell-based; settings: Homo sapiens
Description: SANGER: Inhibition of human Detroit562 cell growth in a cell viability assay.

COLO-792 = type: functional, cell-based; settings: Homo sapiens
Description: SANGER: Inhibition of human COLO-792 cell growth in a cell viability assay.

MFM-223 = type: functional, cell-based; settings: Homo sapiens
Description: SANGER: Inhibition of human MFM-223 cell growth in a cell viability assay.

For Fc1cc(-c2cc[nH]/c(=N/c3ccc(-n4cnc(N5CCOCC5)n4)cc3)n2)cc(N2CCOCC2)c1, the IC50 (U-87 MG) was 2730 nM, the IC50 (SNB-75) was 291 nM and the IC50 (Ramos-2G6-4C10) was 393 nM. The IC50 (NOMO-1) was 463 nM, the IC50 (SK-LMS-1) was 453 nM and the IC50 (SK-N-FI) was over 5120 nM. For the same compound, the IC50 (ES5) was over 5120 nM, the IC50 (EOL1) was 501 nM and the IC50 (HD-MY-Z) was 1140 nM. The IC50 (ETK-1) was 1060 nM, the IC50 (NCI-H1304) was 1430 nM and the IC50 (NCI-H1155) was 2630 nM. For the same compound, the IC50 (LOUCY) was 112 nM, the IC50 (CAL-12T) was 2110 nM and the IC50 (769-P) was 535 nM. For the same compound, the IC50 (OE19) was 1100 nM, the IC50 (RKO) was 117 nM and the IC50 (KG-1) was 482 nM. The IC50 (LB2241-RCC) was 733 nM, the IC50 (GB-1) was 328 nM and the IC50 (KARPAS-45) was 795 nM. It also gave an IC50 (HH) of over 5120 nM, an IC50 (QIMR-WIL) of 343 nM and an IC50 (UACC-257) of 1240 nM. The IC50 (LB2518-MEL) was 540 nM, the IC50 (RS4-11) was 280 nM and the IC50 (DOHH-2) was 715 nM. It also gave an IC50 (TE-6) of 2000 nM, an IC50 (NCI-H2228) of 527 nM and an IC50 (REH) of 722 nM. For the same compound, the IC50 (HCE-4) was 903 nM, the IC50 (NCI-H1395) was over 5120 nM and the IC50 (SH-4) was 410 nM. For the same compound, the IC50 (TE-9) was 69.2 nM, the IC50 (SNU-5) was over 5120 nM and the IC50 (P30-OHK) was 299 nM. The IC50 (GAK) was 790 nM, the IC50 (KMOE-2) was 1070 nM and the IC50 (SW 954) was 473 nM. For the same compound, the IC50 (SCC-15) was 803 nM, the IC50 (KNS-81-FD) was 4950 nM and the IC50 (EW-13) was 297 nM. For the same compound, the IC50 (LS-123) was 1250 nM, the IC50 (OS-RC-2) was 390 nM and the IC50 (DB) was 611 nM. For the same compound, the IC50 (NY) was 623 nM, the IC50 (GR-ST) was 647 nM and the IC50 (MOLT-4) was 716 nM. For the same compound, the IC50 (SF-539) was 673 nM, the IC50 (CAS-1) was 2230 nM and the IC50 (KM12) was 212 nM. The IC50 (KU812 cell line) was 338 nM, the IC50 (C-33-A) was 253 nM and the IC50 (HT-144) was 147 nM. It also gave an IC50 (IST-SL1) of 775 nM, an IC50 (OCI-AML2) of 498 nM and an IC50 (ML-2) of 702 nM. It also gave an IC50 (DMS-79) of 4280 nM, an IC50 (MZ2-MEL) of 410 nM and an IC50 (CA46) of 333 nM. It also gave an IC50 (NEC8) of 1010 nM, an IC50 (CTV-1) of 405 nM and an IC50 (HCE-T) of 2790 nM. For the same compound, the IC50 (Detroit 562) was 321 nM, the IC50 (COLO-792) was over 5120 nM and the IC50 (MFM-223) was over 5120 nM.

For Cc1[nH]c(/C=C2\C(=O)Nc3ccc(S(=O)(=O)Cc4c(Cl)cccc4Cl)cc32)c(C)c1C(=O)N1CCC[C@@H]1CN1CCCC1 [PHA-665752], the IC50 (U-87 MG) was over 2000 nM, the IC50 (SNB-75) was over 2000 nM and the IC50 (Ramos-2G6-4C10) was over 2000 nM. It also gave an IC50 (NOMO-1) of over 2000 nM, an IC50 (SK-LMS-1) of 898 nM and an IC50 (SK-N-FI) of over 2000 nM. The IC50 (ES5) was over 2000 nM, the IC50 (EOL1) was over 2000 nM and the IC50 (HD-MY-Z) was over 2000 nM. It also gave an IC50 (ETK-1) of over 2000 nM, an IC50 (NCI-H1304) of over 2000 nM and an IC50 (NCI-H1155) of over 2000 nM. For the same compound, the IC50 (LOUCY) was over 2000 nM, the IC50 (RKO) was over 2000 nM and the IC50 (KG-1) was over 2000 nM. It also gave an IC50 (LB2241-RCC) of 157 nM, an IC50 (GB-1) of over 2000 nM and an IC50 (KARPAS-45) of over 2000 nM. It also gave an IC50 (HH) of over 2000 nM, an IC50 (QIMR-WIL) of over 2000 nM and an IC50 (UACC-257) of over 2000 nM. It also gave an IC50 (LB2518-MEL) of over 2000 nM, an IC50 (RS4-11) of over 2000 nM and an IC50 (DOHH-2) of over 2000 nM. For the same compound, the IC50 (TE-6) was over 2000 nM, the IC50 (REH) was over 2000 nM and the IC50 (HCE-4) was over 2000 nM. It also gave an IC50 (NCI-H1395) of over 2000 nM, an IC50 (SH-4) of over 2000 nM and an IC50 (TE-9) of over 2000 nM. The IC50 (SNU-5) was 124 nM, the IC50 (P30-OHK) was over 2000 nM and the IC50 (GAK) was […]. For the same compound, the IC50 (KMOE-2) was over 2000 nM, the IC50 (SW 954) was over 2000 nM and the IC50 (SCC-15) was over 2000 nM. For the same compound, the IC50 (KNS-81-FD) was over 2000 nM, the IC50 (EW-13) was over 2000 nM and the IC50 (LS-123) was over 2000 nM. It also gave an IC50 (OS-RC-2) of over 2000 nM, an IC50 (DB) of over 2000 nM and an IC50 (GR-ST) of over 2000 nM. It also gave an IC50 (MOLT-4) of over 2000 nM, an IC50 (SF-539) of over 2000 nM and an IC50 (CAS-1) of over 2000 nM. For the same compound, the IC50 (KM12) was over 2000 nM, the IC50 (KU812 cell line) was over 2000 nM and the IC50 (HT-144) was over 2000 nM. For the same compound, the IC50 (IST-SL1) was over 2000 nM, the IC50 (OCI-AML2) was over 2000 nM and the IC50 (ML-2) was over 2000 nM. For the same compound, the IC50 (DMS-79) was over 2000 nM, the IC50 (MZ2-MEL) was over 2000 nM and the IC50 (CA46) was over 2000 nM. The IC50 (NEC8) was over 2000 nM, the IC50 (CTV-1) was over 2000 nM and the IC50 (HCE-T) was over 2000 nM. For the same compound, the IC50 (MFM-223) was over 2000 nM.
